Results on 15 compounds are retold here after ChEMBL document CHEMBL1126224, “Synthesis and biological activity of 4-(diphenylmethyl)-alpha-[(4-quinolinyloxy)methyl]-1-piperazineethanol and related compounds” (J Med Chem, 1992).

The species named for test [1] is Rattus norvegicus. The test can be described thus: The compound was tested for its cardiovascular activity in rat heart model. producing a 25% increase (EC25) in LV dP/dtmax (measure of contractility); N = not active. Format: functional, organism-based.
For test [2], the species on record is Rattus norvegicus. The experiment in a line: The compound was tested for its cardiovascular activity in rat heart model. producing a 50% increase (EC50) in CF(coronary flow). It counts as functional, organism-based.
For test [3], the species on record is Rattus norvegicus. The experiment in a line: The compound was tested for its cardiovascular activity in rat heart model. producing a 25% increase (EC25) in CF(coronary flow). Format: functional.
Test [4] is filed under the species Rattus norvegicus. The experiment in a line: (§1) The compound was tested for its cardiovascular activity in rat heart model. producing a 25% increase (EC25) in CF(coronary flow); N = not active. Format: functional, organism-based.
Test [5] is filed under the species Rattus norvegicus. The test can be described thus: The compound was tested for its cardiovascular activity in rat heart model. producing a 50% increase (EC50) in LV dP/dtmax (measure of contractility). It counts as functional, organism-based.
The species named for test [6] is Rattus norvegicus. The experiment in a line: The compound was tested for its cardiovascular activity in rat heart model. producing a 25% increase (EC25) in LV dP/dtmax (measure of contractility). Format: functional.
Test [7] is filed under the species Rattus norvegicus. The test is described as §1. Format: functional, organism-based. The source holds these as a separate data set.
Test [8] relates to Canis familiaris. The test can be described thus: Mean blood pressure was tested in anesthetized dogs. for a dose of 1.0 mg/kg. It counts as functional, Canis lupus familiaris.
Test [9] has as its system Canis familiaris. The experiment in a line: The compound was tested for its cardiovascular activity in anesthetized dogs producing a 25% increase (EC25) in LV dP/dtmax (measure of contractility) for a dose of 1.0 mg/kg. It counts as functional, Canis lupus familiaris, Heart.
Test [10] has as its system Canis familiaris. The experiment in a line: Total peripheral resistance was tested in anesthetized dogs for a dose of 1.0 mg/kg. Format: functional, Canis lupus familiaris.
Test [11] relates to Canis familiaris. The experiment in a line: Mean blood pressure was tested in anesthetized dogs. for a dose of 0.1 mg/kg. It counts as functional, Canis lupus familiaris.
Test [12] concerns Canis familiaris. The experiment in a line: The compound was tested for its cardiovascular activity in anesthetized dogs producing a 25% increase (EC25) in LV dP/dtmax (measure of contractility) for a dose of 0.1 mg/kg. Format: functional, Canis lupus familiaris, Heart.
For test [13], the system named is Canis familiaris. The test can be described thus: Mean blood pressure was tested in anesthetized dogs. for a dose of 0.3 mg/kg. It counts as functional, Canis lupus familiaris.
Test [14] concerns Canis familiaris. The experiment in a line: The compound was tested for its cardiovascular activity in anesthetized dogs producing a 25% increase (EC25) in LV dP/dtmax (measure of contractility) for a dose of 0.3 mg/kg. Format: functional, Canis lupus familiaris, Heart.
In test [15] the test system is Canis familiaris. The test can be described thus: The compound was tested for its cardiovascular activity expressed as heart rate in beat/min in anesthetized dogs for a dose of 0.3 mg/kg. It counts as functional, Canis lupus familiaris.
Test [16] deals with Canis familiaris. The experiment in a line: The compound was tested for its cardiovascular activity expressed as heart rate in beat/min in anesthetized dogs for a dose of 0.1 mg/kg. It counts as functional, Canis lupus familiaris.
The species named for test [17] is Cavia porcellus. The experiment in a line: Coronary flow activity in Langendorff perfused guinea pig heart. Format: functional.
Test [18] has as its system Canis familiaris. The test can be described thus: The compound was tested for its cardiovascular activity expressed as heart rate in beat/min in anesthetized dogs for a dose of 1.0 mg/kg. Format: functional, Canis lupus familiaris.
Test [19] has as its system Canis familiaris. The test can be described thus: Total peripheral resistance was tested in anesthetized dogs for a dose of 0.1 mg/kg. Format: functional, Canis lupus familiaris.
The species named for test [20] is Oryctolagus cuniculus. The experiment in a line: Calcium channel blocking activity in rabbit aortic rings. Format: functional. The following applies: Aorta.
Test [21] relates to Canis familiaris. The experiment in a line: Total peripheral resistance was tested in anesthetized dogs for a dose of 0.3 mg/kg. It counts as functional, Canis lupus familiaris.
Test [22] relates to Canis familiaris. The test can be described thus: The compound was tested for its cardiovascular activity expressed as heart rate in beat/min in anesthetized dogs for a dose of 0.01 mg/kg. Format: functional, Canis lupus familiaris.
The test system of test [23] is Canis familiaris. The test can be described thus: Total peripheral resistance was tested in anesthetized dogs for a dose of 0.01 mg/kg. It counts as functional, Canis lupus familiaris.
Test [24] deals with Canis familiaris. The test can be described thus: Mean blood pressure was tested in anesthetized dogs. for a dose of 0.01 mg/kg. It counts as functional, Canis lupus familiaris.
Test [25] deals with Canis familiaris. The experiment in a line: The compound was tested for its cardiovascular activity in anesthetized dogs producing a 25% increase (EC25) in LV dP/dtmax (measure of contractility) for a dose of 0.01 mg/kg. It counts as functional, Canis lupus familiaris, Heart.
The species named for test [26] is Rattus norvegicus. The test can be described thus: The compound was tested for its cardiovascular activity in rat heart model. producing a 25% increase (EC50) in CF(coronary flow); NA = not achieved. Format: functional, organism-based.
Test [27] is filed under the species Rattus norvegicus. The test can be described thus: The compound was tested for its cardiovascular activity in rat heart model. producing a 25% increase (EC25) in LV dP/dtmax (measure of contractility); NA = not achieved. Format: functional, organism-based.
The species named for test [28] is Rattus norvegicus. The experiment in a line: The compound was tested for its cardiovascular activity in rat heart model. producing a 50% increase (EC50) in LV dP/dtmax (measure of contractility); NA = not achieved. Format: functional, organism-based.

pEC50: −log10 of the molar value. The source made the active and inactive calls. The rule behind the calls is not given here. Some results are limits rather than exact numbers.

Regarding `OC(COc1cccc2[nH]ccc12)CN1CCN(C(c2ccccc2)c2ccccc2)CC1` (configuration not stated), the EC25 (commonly the concentration at which the effect reaches the 25% level) in [1] is “inactive”. Moreover, the pEC50 (commonly −log10 of the EC50, conventionally taken in molar units) in [2] is 5.60. For the same compound, the EC25 in test [3] came out at 120 nM.

`Cc1cc(OCC(O)Cn2cnc3ccccc32)c2ccccc2n1` (configuration not stated): the EC25 result in [1] is “inactive”. Also, in [4], the EC50 entry is recorded as “Not Active”.

Turning to `Oc1nccc2c(OCC(O)CN3CCN(C(c4ccccc4)c4ccccc4)CC3)cccc12` (configuration not stated), in [3], the EC25 was 150 nM.

Consider `OC(COc1cccc2cnccc12)CN1CCN(C(c2ccccc2)c2ccccc2)CC1` (configuration not stated), for which, in test [1], the EC25 entry is “inactive”. This compound gave a pEC50 in test [2] of 5.82. In addition, in test [3], the 25% effect concentration (EC25) was 200 nM.

With `CCOC(=N)c1cc2c(OCC(O)CN3CCN(C(c4ccccc4)c4ccccc4)CC3)cccc2o1` (configuration not stated), the EC25 entry in test [1] is “inactive”. In [3], this compound gave an EC25 of 1000 nM.

Compound `Cl.OC(COc1ccc2ncccc2c1)CN1CCN(C(c2ccccc2)c2ccccc2)CC1` (configuration not stated) showed a pEC50 in [5] of 6.10. This compound yielded an EC25 in [6] of 480 nM. The EC25 result in [7] was “inactive”.

Take `OC(COc1ccnc2ccccc12)CN1CCN(C(c2ccccc2)c2ccccc2)CC1` (configuration not stated): the figures for the Mean blood pressure in test [8], in test [11] and in test [13] were 3 mmHg, 3 mmHg and 4.5 mmHg, respectively. Besides, in test [5], the pEC50 was 6.49. Besides, the Contractility in test [9] is given as 115.5 mmHg s-1; in [12], 12 mmHg s-1; in test [14], 40 mmHg s-1. Further, the Total peripheral resistance is -17 mmHg·min/mL in test [10], 3 mmHg·min/mL in [19] and 6.5 mmHg·min/mL in [21]. For the same compound, the EC25 is 140 nM in test [6], 900 nM in test [17] and above 100000 nM in test [20]. Also, the Heart rate in [15] is given as -3.5 beats min-1; in test [16] it was -2 beats min-1; in [18] it was -2.6 beats min-1. The EC25 result in [7] was “inactive”.

Take `N#Cc1cc2c(OCC(O)CN3CCN(C(c4ccccc4)c4ccccc4)CC3)cccc2[nH]1` (configuration not stated): the Mean blood pressure in test [8] is given as -21 mmHg; in [24] it was 4.3 mmHg; in [11], 2.3 mmHg. In test [5], this compound gave a pEC50 of 7.46. The Heart rate is listed as 0.66 beats min-1 in test [22], -0.66 beats min-1 in test [16] and -1 beats min-1 in test [18]. In addition, the Total peripheral resistance in test [23] is -9.6 mmHg·min/mL; in test [10] it was -24.5 mmHg·min/mL; in [19], -17.3 mmHg·min/mL. Moreover, the Contractility is 83.3 mmHg s-1 in test [9], 21.3 mmHg s-1 in test [12] and 9 mmHg s-1 in [25]. Moreover, the EC25 in [6] was 20 nM; in [17], 280 nM; in test [3] it was 300 nM; in [20] it was above 100000 nM. In [26], the EC50 entry is reported as “Not Active”.

On to `OC(COc1cccc2ncccc12)CN1CCN(C(c2ccccc2)c2ccccc2)CC1` (configuration not stated), for which, in test [27], the EC25 entry was “inactive”. Further, the pEC50 in test [2] was 5.70. In [3], this compound displayed an EC25 of 800 nM.

For the compound `OC(COc1ccnc2cc(C(F)(F)F)ccc12)CN1CCN(C(c2ccccc2)c2ccccc2)CC1` (configuration not stated), in test [1], the EC25 entry is “inactive”. In [2], the pEC50 was 6.40. The same compound showed an EC25 in [3] of 200 nM.

For the compound `Cc1cc(OCC(O)CN2CCN(C(c3ccccc3)c3ccccc3)CC2)c2ccccc2n1.Cl.O` (configuration not stated), the EC25 in [3] worked out at 800 nM.

Turning to `Cc1cc(OCC(O)CN2CCc3ccccc3C2)c2ccccc2n1` (configuration not stated), in test [1], the EC25 entry is “inactive”. Further, the EC50 entry in test [4] is recorded as “Not Active”.

Turning to `N#Cc1cc2c(OCC(O)CN3CCN(C(c4ccccc4)c4ccccc4)CC3)cccc2o1` (configuration not stated), the Mean blood pressure in [8] is -14.5 mmHg; in test [11], -0.66 mmHg; in test [13] it was -7.3 mmHg. For the same compound, the pEC50 is 6.38 in [5] and 5.52 in [2]. The Contractility in [9] is listed as 30.3 mmHg s-1; in [12], 2 mmHg s-1; in [14] it was 9.3 mmHg s-1. Besides, the Total peripheral resistance in test [10] is -21.7 mmHg·min/mL; in test [19], -0.66 mmHg·min/mL; in test [21], -8.66 mmHg·min/mL. Also, the EC25 in [6] is 100 nM; in [17] it was 2250 nM; in test [3], 100 nM; in test [20] it was above 100000 nM. The Heart rate is -1.66 beats min-1 in test [15], 0 beats min-1 in [16] and -3.33 beats min-1 in test [18].

With `OC(COc1ccc2cccnc2c1)CN1CCN(C(c2ccccc2)c2ccccc2)CC1` (configuration not stated), in test [28], the EC50 result is given as “Not Active”. In addition, the 25% effect concentration (EC25) in [6] is 700 nM; in test [3] it was 160 nM. In test [2], this compound gave a pEC50 of 6.00.

With `OC(COc1cccc2cnccc12)CN1CCN(c2ccccc2SCc2ccccc2)CC1` (configuration not stated), the EC25 entry in test [1] is “inactive”. Moreover, the EC25 in [3] worked out at 1000 nM.
